Values joined by “and” are separate entries in the source; they are usually repeats but may differ in a detail not shown here. Identical values can stand only once. Like-named read-outs stand apart in the source and are kept apart here.

Here are results for two substances from US20240115881A1, “METHODS AND SYSTEMS FOR DETERMINING THE DISTRIBUTION OF RADIATION DOSE AND RESPONSE” (priority 2022, published 2024).

Data set [1] relates to MDA-MB-468 human breast cancer cell line grown as spheroids. Conditions: cited from earlier work.
The subject of data set [2] is Chinese hamster V79 lung fibroblasts. Conditions: obtained previously, older S values; cited from earlier work.
For data set [3] the test system is unchanged. In words: clonogenic survival assay (colony formation) after single-agent treatment. It counts as cell-based. On the procedure:
The surviving fraction SF of cells exposed to the agent was assessed with a clonogenic survival assay and plotted as a function of several different variables including extracellular concentration, <I>net, absorbed dose (Gy), and mean cellular activity (mBq/cell). The resulting survival curves were of a 1- or 2-component exponential form. Analogous to the cellular activity and absorbed dose required to achieve 37% survival, a37 and D37, the net mean lethal fluorescence intensity of the drug required to achieve 37% survival, <I>net37 , can be defined similarly and obtained from plots of SF versus <I>net.
To evaluate ^210Po cytotoxicity, the surviving fraction was plotted as a function of EuTc-citrate net MFI, mean cellular uptake of ^210Po, and mean absorbed dose to the nucleus (FIG. 4A). […] The relationships between cell survival and EuTc-citrate net MFI or cellular ^210Po activity can be described by an exponential function SF=exp(−A/A1). The relationship between cell survival and drug net MFI (or extracellular concentration) for daunomycin and doxorubicin are illustrated in FIGS. 4B and 4C, respectively. For both drugs, clonogenic survival and cellular drug uptake (as determined by net MFI) are related via two component exponential functions SF=b exp(−A/A1)+(1-b) exp(−A/A2). A is the intracellular activity of ^210Po-citrate, absorbed dose to the cell nucleus, or drug concentration. Least squares fits of the survival data to this function were performed. The variable b is a fitted parameter.
Chinese hamster V79 lung fibroblasts were used. Two different formulations of minimum essential media (MEMA and MEMB) were used, as known in the literature. All media and supplements were Gibco (Carlsbad, CA), including fetal calf serum (catalog no. 10437, lot no. 539574). For routine maintenance, cells were grown as monolayers in Falcon 25-cm^2 tissue culture flasks (BD, Franklin Lakes, NJ, catalog no. 353082) at 37° C., 5% CO2-95% air, and subcultured twice weekly. For experiments, V79 cells (passage 4-11) were transferred into Falcon 225-cm^2 flasks (BD, catalog no. 353138), and were used upon reaching 80%-90% confluence.
Cells grown in 225-cm^2 flasks were trypsinized (0.25% trypsin, Gibco, catalog no. 25200-056), and MEMB was added to obtain 2×10^6 cells/mL. Aliquots of 1 mL were placed in Falcon 17×100 mm polypropylene tubes (BD, catalog no. 352018) and placed on a rocker-roller (Thermo Fisher, Fair Lawn, NJ) for 3 hours at 37° C. with 5% CO2 and 95% air. After this conditioning period, cells were treated with drug or radiochemical. Cell cultures were exposed to radiochemical and drugs for 0.5 and 2.5 h, respectively.
^210PoCl4 in 2 mol/L HCI was obtained at 370 MBq/mL from Eckert&Ziegler Isotope Products (Valencia, CA, catalog no. 6310). ^210Po-citrate was prepared as follows. Briefly, PoCl4 solution was mixed with 1 mol/L sodium citrate in the ratio of 1:7 (final pH 5.8), and was diluted with MEMB to a volume of 4 mL (final pH 6.9). One milliliter of MEMB containing 210Po-citrate was added to the 1 mL of conditioned V79 cultures (2×10^6 cells/mL), to arrive at a concentration of 0-250 kBq/mL (pH 6.9-7.0). After incubating for 30 min, the cells were washed 2× with MEMB, resuspended in 2 mL of MEMB, and incubated on a rocker-roller for 2.5 h to simulate concomitant drug exposure. The cells were resuspended in a 5 mL of MEMB, passed 5× through a needle, and counted with a Beckman Coulter Model Z2 (Brea, CA). Aliquots (500 μL) of the cell suspension were transferred to vials, mixed with 5 mL Ecolume (MP Biomedical, Solon, OH, catalog no. 882470), and counted with a Beckman Coulter LS6500, and the mean activity per cell was determined (efficiency, 50% as per prior studies). Aliquots of about 5×10^5 cells were counted in triplicate for ^210Po activity and the cpm ranged from 10^3-10^5. The triplicate measurements kept statistical variations to a minimum. […]

The next data set deals with V79 cells. Description: cellular 210Po activity, biologic clearance and cellular dosimetry (liquid scintillation counting). Particulars: for intracellular 210Po activity: corresponding to 0.1 mmol/L citrate. It counts as cell-based, Chinese hamster. On the procedure:
The absorbed dose to the cell nucleus was determined as known in the art. Since cells were treated with ^210Po-citrate as a single-cell suspension and were subsequently seeded for colony formation, the small contribution of cross-irradiation from neighboring cells in the colony can be ignored because it is essentially counterbalanced by the reduction in self-dose caused by flattening of cells during the colony forming period. The data was least-squares fitted to obtain a mean biologic half-time of 11.6 h. […] This Tc, the maintenance period of 2.5 h, the subcellular distribution of ^210Po-citrate (28% nucleus, 72% cytoplasm) for V79 cells and published S values, were used to calculate a mean absorbed dose to the cell nucleus of 5.8 Gy/mBq of ^210Po incorporated into the cell.
^210PoCl4 in 2 mol/L HCI was obtained at 370 MBq/mL from Eckert&Ziegler Isotope Products (Valencia, CA, catalog no. 6310). ^210Po-citrate was prepared as follows. Briefly, PoCl4 solution was mixed with 1 mol/L sodium citrate in the ratio of 1:7 (final pH 5.8), and was diluted with MEMB to a volume of 4 mL (final pH 6.9). One milliliter of MEMB containing 210Po-citrate was added to the 1 mL of conditioned V79 cultures (2×10^6 cells/mL), to arrive at a concentration of 0-250 kBq/mL (pH 6.9-7.0). After incubating for 30 min, the cells were washed 2× with MEMB, resuspended in 2 mL of MEMB, and incubated on a rocker-roller for 2.5 h to simulate concomitant drug exposure. The cells were resuspended in a 5 mL of MEMB, passed 5× through a needle, and counted with a Beckman Coulter Model Z2 (Brea, CA). Aliquots (500 μL) of the cell suspension were transferred to vials, mixed with 5 mL Ecolume (MP Biomedical, Solon, OH, catalog no. 882470), and counted with a Beckman Coulter LS6500, and the mean activity per cell was determined (efficiency, 50% as per prior studies). Aliquots of about 5×10^5 cells were counted in triplicate for ^210Po activity and the cpm ranged from 10^3-10^5. The triplicate measurements kept statistical variations to a minimum. Each sample was serially diluted and plated in Falcon 60×15 mm tissue culture dishes for colony formation. Cultures were incubated for 7 days, and the colonies were fixed in 95% ethanol, stained with 0.01% Amido Black, washed in tap-water, air-dried, and counted.
To determine the biologic clearance of ^210Po from the cells, 4×10^6 cells/mL were treated with ^210Pocitrate as described above. After two washes with MEMB, the cells were resuspended in 5 mL of MEMB, passed 5× through a needle, and Coulter counted. Aliquots of 500 μL of cells were transferred to vials and mixed with Ecolume. The remaining cell suspension was plated into 25-cm^2 flasks (1.0, 0.5, 0.5, 0.2 and 0.2×10^6 cells/flask). The cultures were harvested after 24, 48, 72, and 96 h, respectively. Each sample was processed for cell counting and liquid scintillation counting as described. All vials were counted after the last harvest. The ratio of cellular activity at each time point to that immediately after treatment was calculated and plotted.

On to “111In-DTPA-human epidermal growth factor [^111In-EGF]”, for which, in data set [1] (24 h treatment), the “activity distribution, cell surface” value is 62%; the “activity distribution, cytoplasm” value is 22%; the “activity distribution, nucleus” value is reported as 16%. Further, the “distribution of 111In in the spheroid” value in data set [1] (after a 24-h treatment) was “fully internalized”. Further, the “penetration into the spheroid” value in data set [1] (after a 1 h treatment) is reported as ~20 μm. Moreover, in data set [1] (treated for 1 h), the “distribution of 111In in the spheroid” value is “accumulated mainly on the periphery of the spheroid”.
Consider ^210Po-citrate, for which, in data set [2], the “former value of mean lethal dose” value is on record as 0.7 Gy. In addition, in data set [3] (0.1 mmol/L citrate), the “cell kill at this activity” value is “no significant cell kill”. Moreover, in data set [3] (0.21 mBq/cell), the “atoms of 210Po corresponding to the mean lethal uptake” value was “about 3600 atoms”. Besides, the “uptake giving the mean lethal absorbed dose” value in data set [3] (V79 cells) was found to be 0.21 mBq/cell. In addition, the “mean lethal absorbed dose” value in data set [3] (absorbed dose to the cell nucleus, V79 cells) is on record as 1.2 Gy. The cell killing observed entry in data set [3] (over the range of cellular activities employed) is given as “less than 2 logs”. In the data set on V79 cells (V79 cells), the “subcellular distribution, cytoplasm” value is on record as 72% and the “subcellular distribution, nucleus” value turned out to be 28%. Besides, in the data set on V79 cells (clearance of 210Po from V79 cells), the mean biologic half-time was found to be 11.6 h. For the same substance, the “intracellular 210Po activity” value in the data set with V79 cells stood at 0.03 mBq/cell. Further, in the data set on V79 cells (listed as 210Po), the “intracellular 210Po activity” value was 0.03 mBq/cell and ~0.02 mBq/cell. Besides, the “effective half-time Te” value with V79 cells (from biologic half-time and physical half-life of 138 d) came to 11.6 h.
